# Laboratory results: patent publication US8293726B2, “Treatment of cancer and other diseases” (Vianova Labs, Inc., priority 2005, dated 2012)
# Several values for one entry are separate records, joined by “and”; a condition that tells them apart may be missing. Identical values can stand only once.
# Tests used:
# [1] = system: human tumor cell line: squamous-cell carcinoma of the lung; experiment: Human tumor cell lines in immunocompromised mice (intraperitoneal, ascitis): squamous lung; type: in vivo; conditions: treated mice (4, 2 and 0.8 mg/kg/day orally for 10 days)
# Procedure: (§1) Immunocompromised mice were used for this experiment. Mice were inbred in a sterile environment and fed ad libitum. Four groups of 40 mice, weighing approximately 20 g each (range: 17-25 g), were used for each tumor type. The human tumor cell lines used were the following: large B-cell lymphoma; squamous-cell carcinoma of the lung; ductal carcinoma breast; and adenocarcinoma of the lung. A suspension of tumor cells was injected in the peritoneum of immunocompromised mice. Following this, mice were examined and weighed daily. After 6-8 days, we observed the development of abdominal carcinomatosis and […]. At day 18, we observed the development of an abundant […], which increased the weight of the mice by approximately 20 g. At that time, mice were divided into four groups of 10. […] Assessment of tumor cell concentration in the […] abdominal metastases were measured on day 18 and every 2 days thereafter. In all mice, prior to treatment, we observed an increase in LDH ESR (>100) and a decrease in the hematocrit. Control (untreated) mice all died between day 21 and day 25 in all tumor types. […] Complete response: Weight (and ascetic) loss and the disappearance of all abdominal metastatic nodules and tumor cells. Partial response: Weight (and ascitic) loss and at least 25% decrease of tumor cell in the […] least 25% decrease in measured abdominal metastatic nodules. […] Progressive disease: When we observed an increase in […] or tumor volume or death of the animal.
# [2] = system: metastatic renal cell carcinoma (stage IV); experiment: Patient case: metastatic renal cell carcinoma; type: in vivo, human; conditions: 80 mg/day
# [3] = system: experimentally induced large B-cell lymphoma; experiment: Therapeutic efficacy in mice with experimentally induced large B-cell lymphoma (blood tests, LDH, body weight, autopsy); type: in vivo; conditions: second treated group; M (arithmetic mean of 3 animals)
# [4] = system: lung large-cell adenocarcinoma metastatic to liver; experiment: Patient case: lung large-cell adenocarcinoma metastatic to liver; type: in vivo, human; design: LDH: unit not given beside the values
# Description: A patient was diagnosed with a lung large-cell adenocarcinoma metastatic to liver. They received chemotherapy with no success. […] They also had frequent hemoptysis and elevated LDH, GGT, and bilirubin. The course of the patient's biologic parameters during treatment are depicted in Table 7.
# [5] = system: human tumor cell lines; experiment: Human tumor cell lines in immunocompromised mice, general observations over all tumor types; type: in vivo
# Procedure: Immunocompromised mice were used for this experiment. Mice were inbred in a sterile environment and fed ad libitum. Four groups of 40 mice, weighing approximately 20 g each (range: 17-25 g), were used for each tumor type. The human tumor cell lines used were the following: large B-cell lymphoma; squamous-cell carcinoma of the lung; ductal carcinoma breast; and adenocarcinoma of the lung. A suspension of tumor cells was injected in the peritoneum of immunocompromised mice. Following this, mice were examined and weighed daily. After 6-8 days, we observed the development of abdominal carcinomatosis and […]. At day 18, we observed the development of an abundant […], which increased the weight of the mice by approximately 20 g. At that time, mice were divided into four groups of 10. […] Assessment of tumor cell concentration in the […] abdominal metastases were measured on day 18 and every 2 days thereafter. In all mice, prior to treatment, we observed an increase in LDH ESR (>100) and a decrease in the hematocrit. Control (untreated) mice all died between day 21 and day 25 in all tumor types.
# [6] = system: left squamous-cell carcinoma of the lung; experiment: Patient case: squamous-cell carcinoma of the lung; type: in vivo, human
# Description: A patient with presented with a left squamous-cell carcinoma of the lung. […] Seven months later the patient received radiotherapy to the left lung. […] The patient undergoes a left pneumonectomy and drug therapy is stopped, but the tumor recurs and the patient dies.
# [7] = system: experimental lymphoma; experiment: Histological analysis of liver and kidneys of mice with experimental lymphoma; type: in vivo; conditions: mouse with experimental lymphoma, orally daily 250 mg/kg
# Procedure: FIGS. 11 and 12 are photomicrographs (450× and 900×, respectively) of part of the liver taken from a mouse with experimental lymphoma orally administered 24-ethyl-cholestane-3β,5α,6α-triol daily at a dosage of 250 mg/kg. Lymphocytic proliferation is insignificant.
# Parenchymatous organs liver and kidneys received from mice with experimental lymphoma on the 15th day of observation and from mice treated with 24-ethyl-cholestane-3β,5α,6α-triol were taken for the histological analysis. Micropreparations were stained with hematoxilin eosin and examined by microscopy (FIGS. 9, 10, 11, and 12).
# [8] = system: human tumor cell line: ductal carcinoma breast; experiment: Human tumor cell lines in immunocompromised mice (intraperitoneal, ascitis): breast; type: in vivo; conditions: Breast CA; treated mice (4, 2 and 0.8 mg/kg/day orally for 10 days)
# Procedure: as §1
# [9] = system: breast cancer stage IV with lung and bone metastases; experiment: Patient case: breast cancer stage IV with lung and bone metastases, CA 15-3; type: in vivo, human; conditions: for CA 15-3: Femara, Decapeptyl
# Description: A patient presented with breast cancer stage IV with lung and bone metastases. They previously underwent a left radical mastectomy for a stage 2 colloidal mucinous adenocarcinoma Hormone receptors and c-erb B were negative. They received adjuvant chemotherapy (FAC) followed by radiotherapy. Later, a sternal bone metastasis appeared and was resected. […] They also developed lung metastases up to 4 cm size. They received chemotherapy with taxotere, navelbine, and pamidronate, followed by tamoxifen. This treatment gave an almost complete response in the lungs. Tamoxifen was replaced by Femara. The patient received radiotherapy on the spine (T4 and T1 2) and Zometa is administered along with Femara. […] Zometa and Femara were continued and Decapeptyl was added to the treatment.
# [10] = system: human tumor cell line: adenocarcinoma of the lung; experiment: Human tumor cell lines in immunocompromised mice (intraperitoneal, ascitis): lung adenocarcinoma; type: in vivo; conditions: treated mice (4, 2 and 0.8 mg/kg/day orally for 10 days)
# Procedure: as §1
structure (smiles),measurement,setting,value
"CC[C@H](CC[C@@H](C)[C@H]1CC[C@H]2[C@@H]3C[C@H](O)[C@@]4(O)C[C@@H](O)CC[C@]4(C)[C@H]3CC[C@]12C)C(C)C [24-ethyl-cholestane-3β,5α,6α-triol]",Complete Remission,[1],50%
same,Partial Remission,[1],30%
same,Progressive Disease,[1],0%
same,Stable Disease,[1],20%
same,Symptomatic Response,[1],100%
same,"chest CT scan, nodule in the right lower lobe",[2]; eight months later,1 mm
same,chest CT scan,[2]; one year after commencing therapy,normal
same,"chest CT scan, left lung metastasis","[2]; six weeks after start, 1 cm deposit in both lungs before",disappearance of the left lung metastasis
same,neutrophiles/lymphocytes,[3],0.3024
same,LDH,"[4]; Day 11, 70 mg/day, Day 0 prior to treatment 2560 (nl < 480)",2264
same,LDH,"[4]; Day 30, 70 mg/day",283
same,LDH,"[4]; Day 63, 70 mg/day",118
same,Total Bilirubin,"[4]; Day 63, 70 mg/day, Day 0 prior to treatment 1.9 (nl < 1)",0.42
same,LDH,"[4]; Day 85, 70 mg/day",230
same,Total Bilirubin,"[4]; Day 85, 70 mg/day",0.37
same,GGT,"[4]; during treatment, 70 mg/day",31
same,"CT scans, masses in the lungs and liver",[4]; more than a year after commencement of therapy,decrease in number and size of previous masses
same,survival without recurrence,[5]; mice that exhibited a complete response,three month survival without recurrence
same,general condition,[5]; most of the treated mice,improvement in the general condition
same,hematological abnormalities,[5]; most of the treated mice,normalization of hematological abnormalities
same,time to ascitic regression (rapid response to therapy),[5]; most of the treated mice,1 to 2 days
same,tumor cells,"[5]; most of the treated mice, associated with an important tumor lysis",total clearance of tumor cells
same,general condition,"[6]; 50 mg/day, after commencing therapy",drastic and rapid improvement
same,fibroscopy,[6]; fourteen months after therapy commenced,normal
same,late outcome,[6]; nearly five years after commencement of therapy,recurrence of the left lung tumor
same,left lung opacity,"[6]; nine months after commencing treatment, radiotherapy to the left lung at seven months",significant regression
same,lymphocytic proliferation in liver (photomicrographs),[7],insignificant
same,Complete Remission,[8],60%
same,Partial Remission,[8],20%
same,Progressive Disease,[8],0%
same,Stable Disease,[8],20%
same,Symptomatic Response,[8],100%
same,CA 15-3,"[9]; Month 5, 60 mg/day with Zometa, Month 0 prior to treatment 277 (nl < 35)",156 U
same,CA 15-3,"[9]; Month 6, 60 mg/day with Zometa",85 U and 52 U
same,CA 15-3,"[9]; Month 14, 60 mg/day with Zometa",24 U
same,CA 15-3,"[9]; Month 16, 60 mg/day with Zometa",19.5 U
same,symptoms,[9]; two weeks after the beginning of LC,totally asymptomatic
same,Complete Remission,[10],40%
same,Partial Remission,[10],20%
same,Progressive Disease,[10],10%
same,Stable Disease,[10],30%
same,Symptomatic Response,[10],100%
